The results in this text go back to ChEMBL document CHEMBL1629473, “Convenient synthesis and biological profile of 5-amino-substituted 1,2,4-oxadiazole derivatives” (Eur J Med Chem, 2010).

Data set [1] concerns Radical scavenging activity. Kind of data set: Antioxidant activity assessed as DPPH free radical scavenging activity at 100 uM after 60 mins. Type of data set: functional. (In general: The DPPH test is a chemical assay of radical scavenging.)
Data set [2] is described as follows: Induction of NO release in phosphate buffer pH 7.4 containing 0.5 mM L-cysteine assessed as nitrite level at 100 uM after 60 mins by Griess assay. The following applies: pH 7.4, 1 h. It is filed as physicochemical. For orientation: Nitrite, measured by Griess reagent, commonly stands in for NO production.
Data set [3] relates to Radical scavenging activity. Kind of data set: Antioxidant activity assessed as DPPH free radical scavenging activity at 100 uM after 20 mins. Type of data set: functional.
A short description of data set [4]: Induction of NO release in phosphate buffer pH 7.4 containing 1 mM L-cysteine assessed as nitrite level at 100 uM after 60 mins by Griess assay. It is filed as physicochemical. The following applies: pH 7.4, 1 h.
Data set [5] can be described thus: Induction of NO release in phosphate buffer pH 7.4 containing 5 mM L-cysteine assessed as nitrite level at 100 uM after 60 mins by Griess assay. Type of data set: physicochemical. The following applies: pH 7.4, 1 h.
Data set [6] can be described thus: Induction of NO release in phosphate buffer pH 7.4 containing 0.5 mM thiophenol assessed as nitrite level at 100 uM after 60 mins by Griess assay. It is filed as physicochemical. The following applies: pH 7.4, 1 h.
In data set [7] the test system is Rattus norvegicus. The experiment in a line: Antiinflammatory activity in Fisher 344 rat assessed as inhibition of carrageenan-induced paw edema at 0.01 mmol/kg, ip measured 3.5 hrs after carrageenan challenge relative to control. It is filed as functional. Further details: scale not given: the % may be the effect or the level left. In general terms: In the carrageenan paw model, swelling and tenderness develop within hours.

The target in data set [8] is Lipoxygenase (Glycine max) (UniProt Q39829). The experiment in a line: Inhibition of soybean lipoxygenase at 100 uM by UV spectrophotometry. Also noted: scale not given: the % may be the effect or the level left.
The test system of data set [9] is Radical scavenging activity. Kind of data set: Antioxidant activity assessed as DPPH free radical scavenging activity at 50 uM after 60 mins. Type of data set: functional.
The subject of data set [10] is Radical scavenging activity. The experiment in a line: Antioxidant activity assessed as DPPH free radical scavenging activity at 50 uM after 20 mins. Type of data set: functional.

SMILES strings stand for the structures.

As to `CC(=O)N(c1nc(Cc2ccc(Cl)cc2)no1)C1CCCCC1`, the Activity in [1] amounted to 5%; in data set [2] it was 27.5%; in [3], 2%; in data set [4], 18%; in data set [5] it was 12%; in data set [6], 39%.
`CC(C)Nc1nc(Cc2ccc(Cl)cc2)no1`: the Activity in data set [1] came out at 11%; in data set [3], 8%; in [5], 2%; in data set [7] it was 43%; in data set [6], 4%.
Consider `Cc1ccc(-c2noc(NCCCN(C)C)n2)cc1`, for which the Activity in data set [1] is 8%; in data set [2] it was 7.5%; in data set [3], 6%; in data set [6], 21%.
In the case of `CC(=O)N(c1nc(-c2cccc([N+](=O)[O-])c2)no1)C1CCCCC1`, the Activity in data set [1] was found to be 2%; in data set [2] it was 42.5%; in data set [3], 1%; in [4] it was 33%; in data set [5], 33%; in [6], 71%.
Consider `CC(=O)N(c1nc(-c2ccc([N+](=O)[O-])cc2)no1)C1CCCCC1`, for which the Activity in [1] worked out at 4%; in data set [2], 12%; in data set [3], 3%; in data set [4], 8%; in data set [5], 8%; in data set [6], 47%.
As for `c1ccc(-c2noc(NC3CCCCC3)n2)cc1`, the Activity in [2] is 4%; in data set [4], 2%; in data set [8], 38%; in data set [5], 19%; in [7], 51%.
As to `NC(=NO)c1cccc([N+](=O)[O-])c1`, the Activity in [5] was 4%.
For `Cc1ccc(-c2noc(NC(C)C)n2)cc1`, the Activity in data set [1] is 18%.
As to `COc1ccc(-c2noc(NC3CCCCC3)n2)cc1`, the Activity in data set [4] is 2%; in data set [5], 14%.
As to `c1ccc(Cc2noc(NC3CCCCC3)n2)cc1`, the Activity in data set [1] turned out to be 9%; in data set [3], 9%; in data set [6] it was 7.5%.
On to `COc1ccc(C(=N)NO)cc1`, for which the Activity was found to be 57% in data set [1]; 4% in data set [2]; 57% in data set [3]; 5% in [4]; 4% in [5]; 44% in [9]. Further, the Activity in data set [7] came to 45%; in [10] it was 35%.
Take `CN(C)CCCNc1nc(-c2ccc([N+](=O)[O-])cc2)no1`: the Activity in [1] was 4%; in data set [2], 7%; in data set [3] it was 6%; in data set [8], 67%; in data set [6], 24%.
Regarding `CC(=O)N(c1nc(-c2cccc([N+](=O)[O-])c2)no1)C(C)C`, the Activity in data set [1] came to 4%; in data set [3], 3%; in data set [6], 55%.
Take `CC(=O)N(c1nc(-c2ccc(C)cc2)no1)C1CCCCC1`: the Activity in data set [1] was 3%; in data set [3] it was 3%; in data set [8] it was 25.5%.
Molecule `O=[N+]([O-])c1ccc(-c2noc(NC3CCCCC3)n2)cc1` registered an Activity in data set [8] of more than 5%.
Consider `CCCc1noc(NC(C)C)n1`, for which the Activity in [1] and in data set [3] was 7% in each case.
For the molecule `CC(C)Nc1nc(C2CCCCC2)no1`, the Activity in data set [1] stood at 11%; in data set [3] it was 8%.
For `Cc1ccc(-c2noc(NC3CCCCC3)n2)cc1`, in [7], the Activity is reported as 33%.
In the case of `O=[N+]([O-])c1ccc(Cc2noc(NC3CCCCC3)n2)cc1`, the Activity in data set [1] and in data set [3] was 7% throughout.
Regarding `NC(=NO)c1ccccc1` [BENZAMIDOXIME], the Activity in [2] is listed as 2%; in data set [6], 6%.
In the case of `N/C(=N\O)c1cccc([N+](=O)[O-])c1`, the Activity in data set [1] was found to be 15%; in data set [3], 7%; in [8], 32%; in [7], 26%.
Turning to `NC(Cc1ccc(Cl)cc1)=NO`, in data set [6], the Activity was determined as 3%.
As to `CC(Cc1ccc(O)c(O)c1)C(C)Cc1ccc(O)c(O)c1` (configuration not stated), the Activity in data set [1] worked out at 91%; in data set [3], 84%; in data set [8], 83.7%; in [9], 81%; in [10], 77%.
With `Clc1ccc(Cc2noc(NC3CCCCC3)n2)cc1`, the Activity in data set [1] and in data set [3] was 7% in each case.
With `COc1ccc2c(c1)c(CC(=O)O)c(C)n2C(=O)c1ccc(Cl)cc1` [INDOMETHACIN], in data set [7], the Activity came to 47%.
Take `CCNc1nc(-c2ccc([N+](=O)[O-])cc2)no1`: the Activity in [1] is 9%.
With `CC(C)Nc1nc(-c2cccc([N+](=O)[O-])c2)no1`, the Activity in data set [1] was 8%; in [3] it was 6%; in [8], 88%; in data set [6], 7%.
For the molecule `N/C(=N\O)c1ccc([N+](=O)[O-])cc1`, the values for the Activity in data set [1], in [3] and in data set [8] were 18%, 9% and 24%, respectively.
In the case of `Cc1ccc(/C(N)=N/O)cc1`, the Activity in data set [1] was found to be 26%; in data set [3], 21%; in [5] it was 8%; in [9] it was 14%; in data set [7] it was 41%; in [10], 15%.
For `N/C(=N\O)c1ccccc1`, the Activity in data set [1] was determined as 30%; in data set [3], 19%; in data set [10], 8%.
For `O=[N+]([O-])c1cccc(-c2noc(NC3CCCCC3)n2)c1`, the Activity in [1] is 11%; in data set [3], 11%; in [8], 74%; in data set [5], 3%; in data set [7] it was 40%; in [6], 3%.
Regarding `N/C(Cc1ccc(Cl)cc1)=N\O`, the Activity in [1] came out at 16%; in [8] it was 19%; in data set [7] it was 47%.
